Counter-ions that a name gives are not always drawn. Marks after values point to notes of the source that are not given here.
Key:
Mouse formalin test = format: in vivo; details: male ddy mouse, 30 mg/kg subcutaneously 15 min before 1% formalin, mean
Experimental: A male ddy strain mouse (4 to 5 weeks old) was kept at a temperature of 21 to 25° C. and a humidity of 45 to 65% in a breeding room under the conditions of a constant lighting cycle (light: 12 hours, dark: 12 hours) while allowing the animal to access a feed and water ad libitum, whereby acclimatizing the animal over a period of 1 week or longer. Each 6 to 7 animals were assigned to each group.
After the mouse was acclimatized to an observation cage sufficiently, it was treated with a test compound, and then after 15 minutes 20 μl of 1% formalin solution was given subcutaneously to a hind limb. The test compound was dissolved in a saline, and immediately given to the mouse subcutaneously at the dose of 0.1 ml per 10 g body weight using a 27G needle. A control group received the physiological saline. The animals were returned to their observation cages, and examined for the duration of the aversive responses such as licking or biting the posterior limb using a stopwatch over a period of 30 minutes.
The significance of the difference was analyzed by the one-way layout analysis of variance between the control group and a treatment group followed by Dunnett's multiple comparison.

[1] = target: T1, human nociceptin receptor (Homo sapiens, UniProt P41146); assay: Nociceptin receptor binding test ([3H]-nociceptin); details: membranes of human nociceptin receptor expressing cell; 0.08 nM [3H]-nociceptin; 25° C., 60 minutes
T1 construct: expressed in transfected cells
Experimental: Nociceptin Receptor Binding Test
A suspension of cell membrane obtained from a human nociceptin receptor expressing cell was adjusted at a protein concentration of 5 to 10 μg/ml using a Tris-buffer solution [50 mM Tris-HCl (pH 7.8), 5 mM MgCl2, 1 mM EGTA, 0.1% BSA]. The solution was incubated with [^3H]-nociceptin (diluted at the final concentration of 0.08 nM using Tris-buffer) and a test compound at 25° C. for 60 minutes. The membrane was recovered using a cell harvester onto a glass fiber (GF) filter GF/B which had previously been treated with 0.3% polyethyleneimine (PEI), and then washed further 4 times with a washing solution[50 mM Tris-HCl (pH 7.8), 4° C.]. The filter was transferred into a counteing vial. Adequate amount of scintillator was added to the vial and the radioactivity was measured using a liquid scintillation counter. A non-specific binding was regarded as a binding of [^3H]-nociceptin in the presence of 10 μM nociceptin, and a specific binding was regarded as the difference between the total binding and the non-specific binding. Based on the % binding inhibition in the presence of the test compound, an IC50 value was determined, and used together with the Kd value of [^3H]-nociceptin for calculating the Ki value of the test compound.

human μ receptor = target: T2, human μ receptor (Homo sapiens, UniProt P35372); assay: μ receptor binding test ([3H]-diprenorphine); details: human μ receptor expressing cell membrane preparation; 0.13 nM [3H]-diprenorphine; 25° C., 90 minutes; read-out: μ preceptor Ki
T2 construct: purchased Receptor Biology, Inc
Experimental: A nociceptin receptor is a member of an opioid receptor family. An inventive compound was examined for its binding capacity to a μ receptor which is also a member of an opioid receptor family and which is involved in an analgesic effect and a dependency, and compared with the binding capacity to the nociceptin receptor.
A human μ receptor expressing cell membrane preparation (Receptor Biology, Inc) was adjusted at the protein concentration of 8.5 μg/ml using a Tris-buffer solution [50 mM Tris-HCl (pH 7.8), 5 mM MgCl2, 1 mM EGTA, 0.1% BSA]. The solution incubated with [^3H]-diprenorphine (diluted at the final concentration of 0.13 nM using Tris-buffer) and a test compound at 25° C. for 90 minutes. The membrane was recovered using a cell harvester onto a GF/B filter which had previously been treated with 0.3% PEI, and then washed further 4 times with a washing solution [50 mM Tris-HCl (pH 7.8), 4° C.]. The filter was transferred into a counting vial. Adequate amount of scintillator was added and the radioactivity was measured using a liquid scintillation counter. A non-specific binding was regarded as a binding of [^3H]-diprenorphine in the presence of 100 μM naloxone, and a specific binding was regarded as the difference between the total binding and the non-specific binding. Based on the % binding inhibition in the presence of the test compound, an IC50 value was determined, and used together with the Kd value of [^3H]-diprenorphine for calculating the Ki value of the test compound.

[2] = 0~10 min after formalin treatment (phase 1)
[3] = 10~30 min after formalin treatment (phase 2)

T2 sequence (P35372 whole entry): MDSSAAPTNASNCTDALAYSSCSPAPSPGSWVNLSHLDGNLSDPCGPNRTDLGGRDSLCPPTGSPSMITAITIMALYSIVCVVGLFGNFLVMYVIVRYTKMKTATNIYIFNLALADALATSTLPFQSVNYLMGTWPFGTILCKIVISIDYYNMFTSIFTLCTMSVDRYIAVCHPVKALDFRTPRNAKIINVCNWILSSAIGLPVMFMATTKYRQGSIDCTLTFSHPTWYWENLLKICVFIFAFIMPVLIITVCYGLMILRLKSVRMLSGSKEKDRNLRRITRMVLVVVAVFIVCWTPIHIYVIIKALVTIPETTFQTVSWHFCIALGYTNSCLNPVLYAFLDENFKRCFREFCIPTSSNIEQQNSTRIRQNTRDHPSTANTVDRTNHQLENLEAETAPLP
T1 sequence (P41146 whole entry): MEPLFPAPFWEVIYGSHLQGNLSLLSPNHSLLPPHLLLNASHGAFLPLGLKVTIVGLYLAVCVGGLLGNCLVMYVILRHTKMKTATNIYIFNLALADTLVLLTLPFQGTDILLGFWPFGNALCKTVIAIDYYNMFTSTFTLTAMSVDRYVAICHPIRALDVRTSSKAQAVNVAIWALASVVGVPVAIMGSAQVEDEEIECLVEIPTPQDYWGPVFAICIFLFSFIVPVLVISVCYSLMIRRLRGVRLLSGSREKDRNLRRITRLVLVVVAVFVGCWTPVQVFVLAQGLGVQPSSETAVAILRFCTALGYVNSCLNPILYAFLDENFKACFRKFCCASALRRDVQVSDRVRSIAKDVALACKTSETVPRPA

| Structure (SMILES) | Ki [1] | Ki (human μ receptor) | Duration of the abersive response (Mouse formalin test; [2]) | Duration of the abersive response (Mouse formalin test; [3]) |
| --- | --- | --- | --- | --- |
| Cc1ccc2nc(C=Cc3ccccn3)nc(N[C@@H]3CC[C@H](N)C[C@@H]3C)c2c1 (relative stereo) [Example 1, cis-4-amino-cis-2-methyl-N-{6-methyl-2-[2-(2-pyridyl)ethenyl]quinazolin-4-yl}cyclohexylamine Trihydrochloride] | 4 nM | 207 nM | 47.5** sec | 74.5* sec |
| Cc1ccc2nc(C=Cc3ccccn3)nc(N[C@H]3CC[C@@H](N)CC3)c2c1.Cl.Cl.Cl [Example 40, cis-4-{6-methyl-2-[2-(2-pyridyl)ethenyl]quinazolin-4-yl}aminocyclohexylamine Trihydrochloride] | 18 nM | 288 nM | 64.5** sec | 77.6* sec |
| Cc1ccc2nc(C=Cc3cccc(C)n3)nc(NC3CCC(N)CC3C)c2c1.Cl.Cl.Cl (stereo not drawn) [Example 52, cis-4-amino-cis-2-methyl-N-{6-methyl-2-[2-(6-methyl-2-pyridyl)ethenyl]quinazolin-4-yl}cyclohexylamine Trihydrochloride] |  |  | 79.4** sec | 77.0** sec |
| Cc1ccc2nc(C=Cc3ccc(Cl)cc3)nc(N[C@H]3CC[C@@H](N)CC3)c2c1 [Example 22, cis-4-[2-(4-chlorostyryl)-6-methylquinazolin-4-yl]aminocyclohexylamine dihydrochloride] | 29 nM | 313 nM |  |  |
| COc1ccc2nc(C=Cc3ccc(Cl)cc3)nc(N[C@H]3CCCC[C@H]3N)c2c1 (relative stereo) [Example 25, cis-2-[2-(4-chlorostyryl)-6-methoxyquinazolin-4-yl]aminocyclohexylamine dihydrochloride] | 110 nM | 204 nM |  |  |

Continued, in another order:

| Ki [1] | Ki (human μ receptor) | Structure (SMILES) | Duration of the abersive response (Mouse formalin test; [2]) | Duration of the abersive response (Mouse formalin test; [3]) |
| --- | --- | --- | --- | --- |
| 23 nM | 492 nM | COc1ccc2nc(C=Cc3ccccn3)nc(N[C@H]3CC[C@@H](N)CC3)c2c1 [Example 44, cis-4-{6-methoxy-2-[2-(2-pyridyl)ethenyl]quinazolin-4-yl}aminocyclohexylamine Trihydrochloride] |  |  |
| 42 nM | 284 nM | Cc1ccc2nc(C=Cc3ccccn3)nc(N[C@@H]3CC[C@H](N)C[C@@H]3C)c2c1 [Example 57, (1R, 2S, 4S)-4-amino-2-methyl-N-{6-methyl-2-[2-(2-pyridyl)ethenyl]quinazolin-4-yl}cyclohexylamine Trihydrochloride] |  |  |
| 6 nM | 206 nM | COc1ccc2nc(C=Cc3ccccn3)nc(N[C@@H]3CC[C@H](N)C[C@@H]3C)c2c1 (relative stereo) [Example 51, cis-4-amino-cis-2-methyl-N-{6-methoxy-2-[2-(2-pyridyl)ethenyl]quinazolin-4-yl}cyclohexylamine Trihydrochloride] |  |  |
| 2 nM | 234 nM | Cc1ccc2nc(C=Cc3ccccn3)nc(N[C@H]3CC[C@@H](N)C[C@H]3C)c2c1 [Example 58, (1S, 2R, 4R)-4-amino-2-methyl-N-{6-methyl-2-[2-(2-pyridyl)ethenyl]quinazolin-4-yl}cyclohexylamine Trihydrochloride] |  |  |

— patent US7220751B2, “Quinazoline derivatives and drugs” (Nippon Shinyaku Co., Ltd., priority 2001, dated 2007)
